Molecules are shown by their SMILES. Several values for one entry are separate records, joined by “and”; a condition that tells them apart may be missing. Equal values may be shown once.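 1) Cells in 96-well plates. 2) Compound, 48 h, 5 concentrations. 3) Linear interpolation between surrounding doses. 4) Unreached endpoint = highest concentration. GI50 = concentration required for 50% inhibition of growth. At the TGI there is no net growth.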 *1 amine or outer side, *2 acyl side, *3 side chain or, on linkers, in order; H or OH if unused. Where a SMILES comes first, the peptide text is derived from it. Bridges are numbered along the chain shown (N, C = ends). [ ]: non-standard residue; d: D form. X59 = COc1c(N[*:1])cccc1C(=O)O[C@H](C(=O)[C@H](C)C(=O)[*:2])C(C)C; X58 = CC(C)C[C@H](C(=O)[*:2])C(C)C(=O)C1CCCN1[*:1]; NMeY = CN[C@@H](Cc1ccc(O)cc1)C(=O)O; Lac = C[C@H](O)C(=O)O Where only a bound is given, the exact number is not on record here.

Holding throughout (test): DTP human tumour cell line panel, 48 h
In test [1] the test system is HOP-92 NSCLC.
Test [2] deals with MOLT-4 leukemia.
Test [3] relates to SF-295 CNS.
The test system of test [4] is UACC-257 melanoma.

As for `Cn1c(-c2cccs2)cc(-c2ccsc2)c1-c1cccs1`, the TGI in test [1], in test [2], in test [3] and in test [4] was > 100 µM each time.
Regarding `C=CCN1C(=O)/C(=C/c2ccc(OC)cc2)N=C1SC1OC(COC(C)=O)C(OC(C)=O)C(OC(C)=O)C1OC(C)=O` (stereo unspecified), the concentration for total growth inhibition (TGI) in test [1] is 46.4 µM and 59.4 µM; in test [2], > 100 µM; in test [3], 48.8 µM and > 100 µM; in test [4], 45.9 µM and > 100 µM. The GI50 in test [2] is 58.3 µM and 24.7 µM; in test [3], 21 µM and 70.3 µM.
As to `CCN(CC)c1ccc2cc(-c3csc(C)n3)c(=O)oc2c1`, the concentration for total growth inhibition (TGI) is 92.7 µM in test [1], > 100 µM in test [2], > 100 µM in test [3] and > 100 µM in test [4].
For the compound `CCNC1=C(NC(=O)c2ccc(OC)cc2)C(=O)c2ccccc2C1=O`, the TGI in test [1] was > 100 µM; in test [2] it was > 100 µM; in test [3] it was > 100 µM; in test [4], 48 µM.
In the case of `Cc1ncc([N+](=O)[O-])n1CCNC(=O)Cn1ccnc1[N+](=O)[O-]`, the total growth inhibition concentration (TGI) in test [2], in test [3] and in test [4] was > 100 µM each time.
Turning to `Cc1c(-c2ccccc2)c(C#N)c2nnn(C)c(=O)n12`, the TGI in test [1], in test [3] and in test [4] was > 100 µM each time.
Regarding `CC(C)=CC[C@H]1C[C@@]2(CC=C(C)C)C(=O)/C(=C(/O)c3ccccc3)C(=O)[C@](CC=C(C)C)(C2=O)C1(C)C`, the TGI is 19.1 µM in test [1], > 100 µM in test [2], 17.8 µM in test [3] and 19.7 µM in test [4].
Turning to `CC(=O)c1sc2n(C)c(=O)c3ccccc3[n+]2c1C`, the TGI in test [1], in test [2], in test [3] and in test [4] was > 100 µM in each case.
On to `Cc1ccccc1C1CC(=O)CC(c2ccccc2C)C12C(=O)NC(=S)NC2=O` (stereo unspecified), for which the TGI was > 100 µM in test [1], > 100 µM in test [2], > 100 µM in test [3] and 52.4 µM in test [4].
As to `CC(=O)c1c2c(cc3c1CC1(C3)Cc3cc4c(c(C(C)=O)c3C1)CCCC4)CCCC2`, the TGI in test [1] was > 100 µM; in test [2] it was 76.5 µM; in test [3] it was > 100 µM; in test [4], > 100 µM.
`COc1ccc(C[C@H]2C(=O)O[C@H](C)[C@H](NC(=O)[C@@H](CC(C)C)C(C)C(=O)C3CCCN3C(=O)[C@H](C)O)C(=O)Nc3cccc(c3OC)C(=O)O[C@@H](C(C)C)C(=O)[C@H](C)C(=O)N[C@@H](CC(C)C)C(=O)N3CCC[C@H]3C(=O)N2C)cc1` (stereo partly specified) (H-[Lac][X58]T[X59]LP[NMeY](Me); ester 3-C): the concentration for total growth inhibition (TGI) in test [1], in test [2], in test [3] and in test [4] was > 12.5 µM each time.
Regarding `CN(C(=O)c1cc2c(s1)sc1c(=O)n(C)c3ccccc3c12)c1ccccc1`, the TGI in test [1], in test [2], in test [3] and in test [4] was > 100 µM in each case.
For the compound `CNc1cccc2c1C(C)C[C@]1(C)C(=O)Nc3ccccc3[C@H]21` (stereo partly specified), the TGI in test [2] is > 100 µM; in test [3], 34.2 µM; in test [4], 39.3 µM.
`Cc1cc(C)nc(NS(=O)(=O)c2ccc(Nc3nnc(/C=C/c4c(O)ccc5ccccc45)c(=O)n3N)cc2)n1`: the TGI in test [1], in test [2] and in test [3] was > 100 µM each time.
As to `O=c1cc(-c2ccc3ccccc3c2)[nH]c2ncccc12`, the TGI in test [1] is 75.6 µM; in test [2], > 100 µM; in test [3] it was > 100 µM; in test [4] it was > 100 µM. For the same compound, the GI50 in test [3] is 9.19 µM.
For the compound `CC(C)(C)OC(=O)NC(Cc1ccc(OCc2ccccc2)cn1)C(N)=O` (stereo unspecified), the TGI in test [1], in test [3] and in test [4] was > 100 µM in each case.
As for `COc1cc(OC)c2nc(C)c3c(c2c1)OCC3`, the TGI in test [1], in test [2], in test [3] and in test [4] was > 100 µM throughout.
As to `CN(C)CCN=C1Nc2ccccc2C(=O)N2CSCC12` (stereo unspecified), the TGI in test [2], in test [3] and in test [4] was > 100 µM each time.
In the case of `O=C1OC(C2Cc3ccc4c(c3C2=O)CCCC4)c2ccccc21` (stereo unspecified), the TGI was 47.5 µM in test [2], > 100 µM in test [3] and > 100 µM in test [4].
On to `Brc1ccc(N=Nc2ccc3ccccc3n2)cc1`, for which the TGI in test [1], in test [3] and in test [4] was > 100 µM each time.
Turning to `Oc1ccccc1-c1n[nH]c(-c2ccccc2O)n1`, the TGI in test [2] and in test [3] was > 100 µM throughout.
In the case of `COC1=CC(=O)c2c(n[nH]c2CCNC(=O)OCc2ccccc2)C1=O`, the TGI in test [2] came out at 51.4 µM; in test [3] it was 34.9 µM; in test [4] it was 28.3 µM.
For `CC(C)(C)OC(=O)NC(Cc1ccc(OCc2ccccc2)cn1)C(=O)O` (stereo unspecified), the TGI in test [1], in test [3] and in test [4] was > 100 µM each time.
Turning to `COc1cccc(N2C(=O)C3c4[nH]c5ccc(C)cc5c4C4CCC(C)CC4C3C2=O)c1` (stereo unspecified), the TGI in test [1], in test [3] and in test [4] was > 100 µM throughout.
As for `CC1CN=C(NS(=O)(=O)c2cc(C(=O)Nc3ccccc3)c(Cl)cc2S)NN1` (stereo unspecified), the TGI in test [2], in test [3] and in test [4] was > 100 µM each time.
With `COc1ccc(OC2OC(CO)C(O)C(O)C2O)cc1` (stereo unspecified), the TGI in test [2], in test [3] and in test [4] was > 100 µM in each case.
Take `CC1(Cc2cc3c(cc2C2(c4ccc([N+](=O)[O-])cc4)OCCO2)OCO3)OCCO1`: the TGI in test [2], in test [3] and in test [4] was > 100 µM each time.
With `O=c1[nH]c2cc3[nH]c(=O)c(=O)[nH]c3cc2[nH]c1=O`, the TGI in test [2], in test [3] and in test [4] was > 100 µM throughout.
With `CC(CC(C)[C@H]1CCC2[C@H]3C(CC(=O)[C@@]21C)[C@@]1(C)CCC(O)C[C@H]1C[C@@H]3O)C(=O)O` (stereo partly specified), the TGI in test [1], in test [2] and in test [4] was > 100 µM throughout.

A word on the TGI: it is the concentration at which net growth stops. Low values mean more potent growth arrest, high ones less potent growth arrest. The GI50 is the concentration at which growth is held to half of that of the control.

Source of the values: PubChem BioAssay (NCI).
